Molecular target: Glutamyl aminopeptidase (Oryctolagus cuniculus)
Assay: Inhibition of aminopeptidase A (APA)

Point of comparison: `N[C@H](CS)CCCS(=O)(=O)O` [Sodium; (S)-4-amino-5-mercapto-pentane-1-sulfonate], Ki 370 nM. Against it:
- NC(CS)CCCP(=O)(O)O (stereo not given) [(4-Amino-5-mercapto-pentyl)-phosphonic acid] — within 1.5-fold, 510 nM
- NC(CS)CCC(C(=O)O)C(=O)O (stereo not given) [2-(3-Amino-4-mercapto-butyl)-malonic acid] — within 1.5-fold, 280 nM
- NC(CS)CCCCC(=O)O (stereo not given) [6-Amino-7-mercapto-heptanoic acid] — 4.3-fold higher, 1600 nM
- NC(CS)CC(C(=O)O)C(=O)O (stereo not given) [2-(2-Amino-3-mercapto-propyl)-malonic acid] — 9.5-fold higher, 3500 nM

— BindingDB's records for doi:10.1021/jm00044a016 (University of Paris, 1994)
